Measurements as given in patent EP2065031A1, “Skin treatment composition” (Evonik Goldschmidt GmbH, priority 2007, dated 2009).

Experiments:
[1] = tested on: human skin fibroblast cells; details: incubation of human skin fibroblast cells with 6.25 mg/mL arjunolic acid; cited from earlier work
[2] = tested on: skin; test: skin elasticity (Cutometer) in volunteers; assay type: in vivo, human; details: formulation containing 0.1625% arjunolic acid, twice daily, 8 weeks, left inner forearm
Method: Method: For this study 30 volunteers were recruited. 15 volunteers got the test formulation with 0.1625% arjunolic acid, 15 got the formulation without active ingredient (carrier). They applied the test formulation twice daily over a period of 8 weeks on the left inner forearm.
The skin elasticity was assessed with a Cutometer MPA 580 (Courage & Khazaka, Cologne, D) which measures the vertical deformation of the skin when sucked into the loop of a measuring probe and reversed into its original condition. From the stretching/release cycles different parameters describing the skin elasticity were calculated. The parameter R1 describes the remaining deformation after the first stretching cycle while R5 is known as netto elasticity (R5 = UR/UE).
For the stretching a vacuum of 450 mbar was kept for 5s, the relaxing time was also 5s. The measurement was carried out after a climatization of the volunteers at room temperature and 50 % relative humidity for at least 15 min. before the treatment started and after 8 weeks of application.

[3] = tested on: skin; test: transepidermal water loss (Tewameter) in volunteers; assay type: in vivo, human; details: formulation with 0.1625% arjunolic acid versus carrier, twice daily, 4 weeks, left inner forearm, figure 1
From the text: (§1) For the study 30 volunteers were recruited. 15 volunteers got the test formulation with 0.1625% arjunolic acid, 15 got the formulation without active ingredient (carrier). They applied the test formulation twice daily over a period of 4 weeks on the left inner forearm. A Tewameter (TM 300, Courage & Khazaka, Cologne, D) was used to determine the transepidermal water loss. A corneometer (CM825, Courage & Khazaka, Cologne, D) was used to determine the skin hydration. The measurements were performed before the application started and after 4 weeks. Before the measurement started the panelists had to climatize in a climatic room at 21-22°C and 50% relative humidity for at least 15 min.

[4] = tested on: skin; test: skin scaliness (Visioscan camera) in volunteers; assay type: in vivo, human; details: 0.25% arjunolic acid in the formulation as printed, versus carrier, twice daily, 4 weeks, left inner forearm, figure 5
Method: For this study 30 volunteers were recruited. […] They applied the test formulation twice daily over a period of 4 weeks on the left inner forearm. The measurement was carried out after an acclimatization of the volunteers at room temperature and 50 % relative humidity before the treatment started and after 4 weeks of application.
For the evaluation of the skin scaliness a special camera (Visioscan VC 98, Courage & Khazaka, Cologne, D) was used. […] The picture taken with this camera is converted into a digital signal with 256 grey levels. Via the grey level distribution the software calculates the skin scaliness.

[5] = tested on: TSP1; test: TSP1 expression in reconstructed human epidermis (RHE) skin models, real time RT-PCR; assay type: cell-based; details: 50 µl aqueous formulation containing 0.325% arjunolic acid, 48 hours, versus formulation without arjunolic acid, read-out: increased expression of TSP1
Method: Since thrombospondin 1 (TSP1) has been described by Murphy-Ullrich et al. 2000, Cytokine & Growth Factor Reviews; 11: 59-69 as one of the most important endogenous activators of TGF-β1 we investigated the effect of arjunolic acid on TSP1 expression in reconstructed human epidermis (RHE) skin models.
For this purpose RHE skin models (SkinEthic laboratories, Nice, France) were incubated with 50 µl of the test formulation (aqueous arjunolic acid formulation containing 0.325% arjunolic acid, 3% Glyceryl Stearate, 3% Ceteareth-20, 1% Stearyl Alcohol, 4% Cetearyl Ethylhexanoate/Isopropylmyristate and 4% Caprylic/Capric Triglyceride) in a humidified atmosphere containing 5 % CO2 for 48 hours. Then cell culture supernatants were removed and skin models were immediately transferred into a 2 ml reaction tube containing 1,5 ml RNAlater RNA stabilisation reagent (#76104, Qiagen, Hilden, Germany) to avoid RNA degradation. Controls received formulation without arjunolic acid only. […] Real time RT-PCR analysis was performed to quantify expression of TSP1. […] Results were analysed with SDS 2.0 software (Applied Biosystems). Relative quantification was performed according to the delta-delta-Ct method with 18s ribosomal RNA (18s rRNA) used as a house keeping gene.

[6] = tested on: skin; details: moisturizer containing arjunolic acid, volunteers; cited from earlier work
[7] = solubility of arjunolic acid in water, cosmetic oils and solvents; assay type: physicochemical
From the text: Skin is subject to deterioration through the passage of time (chronological aging, dermatological disorders, hormonal changes, environmental abuse (wind, air conditioning, central heating, pollution) all of which may be accelerated by exposure of skin to radiation from the sun (photoaging). Chronological aging and photoaging is summarized under the term aging. Consumers are increasingly seeking cosmetic products which treat or delay the visible signs of aging skin such as wrinkles, lines, loss of elasticity, uneven skin tone, dry skin, sagging, hyperpigmentation and age spots. There continues to be a need, however, for alternative effective cosmetic compositions for topical application to skin for treating and delaying skin aging. […] This effect be boosted by combinations with at least one additional active selected from the group of anti-aging, anti-inflammatory, anti-cellulite, moisturization, skin barrier improving, anti-wrinkle, firming, soothing or calming active ingredients. As described above arjunolic acid is poorly soluble in common solvents: It is insoluble in water and poorly soluble in cosmetic oils like mineral oil, isopropyl myristate or other ester oils or cosmetic solvents like propylene glycol or glycerol. The solubility of arjunolic acid in propylene glycol is only 0.6%; in ispropylmyristate, mineral oil and glycerin less than 0.1% arjunolic acid are soluble. This leads to the problem that it is very difficult to keep a sufficient amount of arjunolic acid solubilized in the cosmetic preparation without crystallization.

[8] = tested on: skin; test: skin hydration (corneometer) in volunteers; assay type: in vivo, human; details: formulation with 0.1625% arjunolic acid, twice daily, 4 weeks, left inner forearm, figure 2
From the text: as §1

Q: With CC1(C)CC[C@]2(C(=O)O)CC[C@]3(C)C(=CC[C@@H]4[C@@]5(C)C[C@@H](O)[C@H](O)[C@@](C)(CO)[C@@H]5CC[C@]43C)[C@@H]2C1 [arjunolic acid, 2a,3b,23-trihydroxyolean-12-en-28-oic acid] as the molecule, how does the collagen formation [1] read?
A: 30.9 ng/mg

Q: What about the “R1, the remaining deformation after the first stretching cycle” value ([2]; figure 3) of the same molecule?
A: improved significantly

Q: What about the “R5, the netto elasticity” value ([2]; figure 4) of the same molecule?
A: improved significantly

Q: What about the “transepidermal water loss (TEWL)” value [3] of the same molecule?
A: improves skin barrier

Q: What about the “reduction of the scaliness” value [4] of the same molecule?
A: improved further

Q: And the fold induction at 0.325 % [5]?
A: ~10

Q: What about the anti-wrinkle effects [6] of the same molecule?
A: good anti-wrinkle effects

Q: What about the solubility in glycerin ([7]; glycerin) of the same molecule?
A: less than 0.1%

Q: And the solubility in ispropylmyristate ([7]; ispropylmyristate)?
A: less than 0.1%

Q: What about the “solubility in mineral oil” value ([7]; mineral oil) of the same molecule?
A: less than 0.1%

Q: What about the “solubility in propylene glycol” value ([7]; propylene glycol) of the same molecule?
A: 0.6%

Q: What about the solubility in water ([7]; water) of the same molecule?
A: insoluble

Q: And the skin hydration [8]?
A: increases skin hydration significantly
